Values quoted from earlier work, collected in patent publication US6224863A, “Antibiotic composition from alcaligenes species and method for making and using the same” (University of South Carolina, priority 1998, dated 2001).

Tests used:
S. epidermidis = details: strains of S. epidermidis
Staphylococcus aureus = details: strains of Staphylococcus aureus

**Q.** With `CCCCCc1cc(O)c2ccccc2n1` [2-n-pentylquinolinol] as the compound, how does the antibiotic activity (Vibrio harveyi) read?
**A.** exhibits activity

**Q.** Which results are given for `C=C(CC/C=C\C=C\CC(C)CC(=O)CC(O)CNC(=O)C(C)C(C)OC(N)=O)CC(C)C/C(C)=C/C(=O)O` (centres unmarked) [kalimantacin A]?
**A.** antibacterial activity (S. epidermidis): only effective; antibacterial activity (Staphylococcus aureus): only effective

**Q.** For `C=C(CC/C=C/C=C/CC(C)CC(=O)CC(O)CNC(=O)C(C)C(C)OC(N)=O)CC(C)C/C(C)=C/C(=O)O` (centres unmarked) [kalimantacin B], which antibacterial activity (S. epidermidis) is on record?
**A.** only effective

**Q.** What about the antibacterial activity (Staphylococcus aureus) of the same compound?
**A.** only effective

**Q.** What does the source list for `C=C(CC/C=C\C=C\CC(C)CC(=O)CC(O)CNC(=O)CC(C)OC(N)=O)CC(C)C/C(C)=C/C(=O)O` (centres unmarked) [kalimantacin C]?
**A.** antibacterial activity (S. epidermidis): only effective; antibacterial activity (Staphylococcus aureus): only effective

**Q.** With `Brc1[nH]c(Br)c(Br)c1Br` [tetrabromopyrrole] as the compound, how does the antibiotic activity (other marine bacteria) read?
**A.** effective against other marine bacteria
